According to the supplement of paper PMC10627819:

What was measured:
[1] = system: S. pneumoniae D39V; assay: fitness (endpoint OD595 vs no drug) (fraction); higher = more growth
Outline: (§1)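 Fitness expresses the optical density reached at the stationary-phase transition as a fraction of the robust mean of no-drug control wells. It is capped at 1. Measurements were OD595 every 30 min for 14 h at 37 °C after inoculation of 384-well plates at OD595 0.01 (30 µl, or 55 µl for S. pneumoniae), minus the first reading.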

[2] = system: B. subtilis 168; assay: Bliss interaction score (quartile over a dose matrix) (fitness difference); higher = more antagonism (negative = synergy)
Outline: (§2)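 The Bliss score was calculated by subtracting the expected fitness, the product of single-drug values, from the observed fitness. OD595 at entry into stationary phase, over the plate's robust no-drug mean and capped at 1, served as the fitness readout. Single-drug values were inferred from combination data, and scores are summarised by quartiles across technical, biological and donor/recipient replicates.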

[3] = system: S. aureus DSM 20231; assay: as above
Outline: as §2

[4] = system: S. pneumoniae D39V; assay: as above
Outline: as §2

[5] = system: S. aureus Newman; assay: as above
Outline: as §2

[6] = system: B. subtilis 168; assay: fitness (endpoint OD595 vs no drug) (fraction); higher = more growth
Outline: as §1
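For Bliss interaction score (quartile over a dose matrix) in this document: first quartile when negative (synergy) and third quartile when positive (antagonism).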

CO[C@H]1/C=C/O[C@@]2(C)Oc3c(C)c(O)c4c(O)c(c(/C=N/N5CCN(C)CC5)c(O)c4c3C2=O)NC(=O)/C(C)=C\C=C\[C@H](C)[C@H](O)[C@@H](C)[C@@H](O)[C@@H](C)[C@H](OC(C)=O)[C@@H]1C [Rifampicin] + CN(C)c1cc(NC(=O)CNC(C)(C)C)c(O)c2c1C[C@H]1C[C@H]3[C@H](N(C)C)C(O)=C(C(N)=O)C(=O)[C@@]3(O)C(O)=C1C2=O [Tigecycline]
[1], first compound 0.025 µg/mL, one replicate
Conditions | fitness
partner 0.65 µg/mL | 0.86
partner 1.3 µg/mL | 0.808
partner 2.6 µg/mL | 0.839

[1], first compound 0.2 µg/mL
Conditions | fitness
partner 0.65 µg/mL | 0.197
partner 1.3 µg/mL | 0.159
partner 2.6 µg/mL | 0.196

Conditions | Bliss interaction score
[2] | 0.0457
[3] | 0.026
[4] | -0.0785
[5] | -0.0189

CO[C@H]1/C=C/O[C@@]2(C)Oc3c(C)c(O)c4c(O)c(c(/C=N/N5CCN(C)CC5)c(O)c4c3C2=O)NC(=O)/C(C)=C\C=C\[C@H](C)[C@H](O)[C@@H](C)[C@@H](O)[C@@H](C)[C@H](OC(C)=O)[C@@H]1C [Rifampicin] + CN(N=O)C(=O)N[C@@H](C=O)[C@@H](O)[C@H](O)[C@H](O)CO [Streptozotocin]
[1], first compound 0.025 µg/mL, one replicate
Conditions | fitness
partner 1.2 µg/mL | 0.825
partner 2.4 µg/mL | 0.838
partner 4.8 µg/mL | 0.786

fitness, [1]
Conditions | partner 1.2 µg/mL | partner 2.4 µg/mL | partner 4.8 µg/mL
first compound 0.05 µg/mL | 0.831 | 0.879 | 0.766
first compound 0.2 µg/mL | 0.0914 | 0.108 | 0

Conditions | Bliss interaction score
[2] | -0.0644
[3] | 0.034
[4] | -0.0476
[5] | -0.0244

CO[C@H]1/C=C/O[C@@]2(C)Oc3c(C)c(O)c4c(O)c(c(/C=N/N5CCN(C)CC5)c(O)c4c3C2=O)NC(=O)/C(C)=C\C=C\[C@H](C)[C@H](O)[C@@H](C)[C@@H](O)[C@@H](C)[C@H](OC(C)=O)[C@@H]1C [Rifampicin] + CN[C@@H]1[C@H](O)[C@H](NC)[C@H]2O[C@@]3(O)C(=O)C[C@@H](C)O[C@H]3O[C@@H]2[C@H]1O [Spectinomycin]
fitness, [1], one replicate
Conditions | partner 4 µg/mL | partner 8 µg/mL | partner 16 µg/mL
first compound 0.025 µg/mL | 0.848 | 0.716 | 0.282
first compound 0.2 µg/mL | – | – | 0

fitness, [1]
Conditions | first compound 0.05 µg/mL | first compound 0.1 µg/mL | first compound 0.2 µg/mL
partner 4 µg/mL | 0.497 | 0.297 | 0.0634
partner 8 µg/mL | – | 0.202 | 0.069
partner 16 µg/mL | 0.23 | 0.204 | –

Conditions | Bliss interaction score
[2] | -0.0584
[3] | -0.0309
[4] | -0.153
[5] | 0.0508

CO[C@H]1/C=C/O[C@@]2(C)Oc3c(C)c(O)c4c(O)c(c(/C=N/N5CCN(C)CC5)c(O)c4c3C2=O)NC(=O)/C(C)=C\C=C\[C@H](C)[C@H](O)[C@@H](C)[C@@H](O)[C@@H](C)[C@H](OC(C)=O)[C@@H]1C [Rifampicin] + CN[C@@H]1[C@H](O[C@H]2[C@H](O[C@H]3[C@H](O)[C@@H](O)[C@H](N=C(N)N)[C@@H](O)[C@@H]3N=C(N)N)O[C@@H](C)[C@]2(O)C=O)O[C@@H](CO)[C@H](O)[C@H]1O [Streptomycin]
[1], one replicate
Conditions | fitness
first compound 0.025 µg/mL, partner 2 µg/mL | 0.804
first compound 0.025 µg/mL, partner 4 µg/mL | 0.823
first compound 0.025 µg/mL, partner 8 µg/mL | 0.725
first compound 0.05 µg/mL, partner 16 µg/mL | 0.272
first compound 0.1 µg/mL, partner 16 µg/mL | 0.215
first compound 0.2 µg/mL, partner 16 µg/mL | 0.137

fitness, [1]
Conditions | partner 2 µg/mL | partner 4 µg/mL | partner 8 µg/mL
first compound 0.1 µg/mL | – | 0.292 | 0.304
first compound 0.2 µg/mL | 0.0493 | 0.0964 | 0.185

Conditions | Bliss interaction score
[2] | 0.184
[3] | -0.0315
[4] | -0.121
[5] | -0.0179

CO[C@H]1/C=C/O[C@@]2(C)Oc3c(C)c(O)c4c(O)c(c(/C=N/N5CCN(C)CC5)c(O)c4c3C2=O)NC(=O)/C(C)=C\C=C\[C@H](C)[C@H](O)[C@@H](C)[C@@H](O)[C@@H](C)[C@H](OC(C)=O)[C@@H]1C [Rifampicin] + CN[C@H](CC(C)C)C(=O)N[C@H]1C(=O)N[C@@H](CC(N)=O)C(=O)N[C@H]2C(=O)N[C@H]3C(=O)N[C@H](C(=O)N[C@H](C(=O)O)c4cc(O)cc(O)c4-c4cc3ccc4O)[C@H](O)c3ccc(c(Cl)c3)Oc3cc2cc(c3O[C@@H]2O[C@H](CO)[C@@H](O)[C@H](O)[C@H]2O[C@H]2C[C@](C)(N)[C@H](O)[C@H](C)O2)Oc2ccc(cc2Cl)[C@H]1O [Vancomycin]
fitness, [1], one replicate
Conditions | partner 0.125 µg/mL | partner 0.25 µg/mL | partner 0.5 µg/mL
first compound 0.025 µg/mL | 0.903 | 0.823 | 0.267
first compound 0.2 µg/mL | – | 0 | 0

fitness, [1]
Conditions | partner 0.03125 µg/mL | partner 0.0625 µg/mL | partner 0.125 µg/mL | partner 0.25 µg/mL | partner 0.5 µg/mL
first compound 0.05 µg/mL | 0.886 | 0.846 | – | 0.707 | 0.299
first compound 0.1 µg/mL | 0.537 | 0.476 | – | – | –
first compound 0.2 µg/mL | 0.162 | 0.161 | 0.0937 | – | –

Conditions | Bliss interaction score
[2] | 0.029
[3] | -0.0199
[4] | 0.135
[5] | 0.0383

CN[C@@H]1[C@H](O[C@H]2[C@H](O[C@H]3[C@H](O)[C@@H](O)[C@H](N=C(N)N)[C@@H](O)[C@@H]3N=C(N)N)O[C@@H](C)[C@]2(O)C=O)O[C@@H](CO)[C@H](O)[C@H]1O [Streptomycin] + COc1cc(Cc2cnc(N)nc2N)cc(OC)c1OC [Trimethoprim]
fitness, [6], one replicate
Conditions | partner 0.1 µg/mL | partner 0.125 µg/mL | partner 0.2 µg/mL | partner 0.4 µg/mL
first compound 2 µg/mL | 0.713 | 0.605 | 0.493 | 0.253
first compound 4 µg/mL | 0.0534 | 0.0554 | 0.0535 | 0.0313
first compound 8 µg/mL | 0.0279 | 0.0253 | 0.0392 | 0.025

fitness, [6]
Conditions | partner 0.25 µg/mL | partner 0.5 µg/mL | partner 1 µg/mL | partner 2 µg/mL
first compound 2 µg/mL | 0.416 | 0.103 | 0.0483 | 0.0464
first compound 4 µg/mL | 0.0303 | 0.0474 | 0.0558 | 0.0621
first compound 8 µg/mL | 0.0127 | 0.0322 | 0.0309 | 0.0326

Conditions | Bliss interaction score
[2] | -0.252
[3] | -0.0639
[4] | -0.175
[5] | 0.0902
